The text below walks through data of patent US20250109118A1, “HETEROCYCLIC COMPOUNDS AS SHP2 INHIBITORS, COMPOSITIONS COMPRISING THE HETEROCYCLIC COMPOUND, AND METHODS OF USE THEREOF” (JS INNOMED HOLDINGS LTD., priority 2021, published 2025).

In test [1] the target is T1, SHP2 (PTPN11/SHP2-FL) (Homo sapiens, UniProt Q06124).
T1 construct: SHP2 (PTPN11/SHP2-FL, RBC produced, no cat #); purchased RBC no cat #
T1 sequence (Q06124 1-593): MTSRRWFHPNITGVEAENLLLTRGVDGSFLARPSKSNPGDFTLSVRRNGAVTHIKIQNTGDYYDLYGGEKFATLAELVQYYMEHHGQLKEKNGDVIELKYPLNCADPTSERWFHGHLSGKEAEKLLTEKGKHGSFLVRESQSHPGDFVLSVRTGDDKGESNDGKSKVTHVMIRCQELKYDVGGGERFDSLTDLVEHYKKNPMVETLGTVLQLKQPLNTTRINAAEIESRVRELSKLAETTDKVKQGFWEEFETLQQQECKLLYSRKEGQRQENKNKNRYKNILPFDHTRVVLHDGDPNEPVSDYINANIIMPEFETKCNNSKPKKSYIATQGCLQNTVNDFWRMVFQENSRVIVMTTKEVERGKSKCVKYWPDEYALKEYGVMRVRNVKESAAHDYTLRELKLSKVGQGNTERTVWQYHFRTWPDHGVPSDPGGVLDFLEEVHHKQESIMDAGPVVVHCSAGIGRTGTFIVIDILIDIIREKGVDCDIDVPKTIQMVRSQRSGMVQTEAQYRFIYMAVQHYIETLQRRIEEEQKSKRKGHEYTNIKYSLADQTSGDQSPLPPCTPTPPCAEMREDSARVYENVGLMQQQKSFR
Nature of the test: SHP2 biochemical assay (DiFMUP prompt fluorescence). Conditions: 0.5 nM SHP2, 0.35 μM activating peptide, DiFMUP 100 μM; read-out: SHP2 bichemical activity (IC50). Here is the method: SHP2 is allosterically activated through binding of bis-tyro syiphorphorylated peptides to its Src Homology 2 (SH2) domains. The latter activation step leads to the release of the auto-inhibitory interface of SHP2, which in turn renders the SHP2 PTP active and available for substrate recognition and reaction catalysis. The catalytic activity of SHP2 was monitored using the surrogate substrate DiFMUP in a prompt fluorescence assay format. Specifically, the phosphatase reactions were performed at room temperature in 384-well black polystyrene plate, flat bottom, low flange, non-binding surface (Corning, Cat #3575) using a final reaction volume of 20 μL and the following assay buffer conditions: 60 mM HEPES, pH 7.2, 75 mM NaCl, 75 mM KCl, 1 mM EDTA, 0.01% Brij-35, 5 mM DTT, and 10% DMSO (final). The inhibition of SHP2 from the tested compounds (final concentrations varying from 0.003-100 μM) was monitored using an assay in which 0.5 nM of SHP2 (PTPN11/SHP2-FL, RBC produced, no cat #) was incubated with 0.35 μM of the peptide H2NLN(pY)IDLDLV(dPEG8)LST(pY)ASINFQK-amide. After 20 minutes of incubation at room temperature, the surrogate substrate DiFMUP (6,8-difluoro-7-hydroxy-4-methylcoumarin, Invitrogen, cat #D6567, 100 μM final concentration) was added to the reaction. The fluorescence signal was monitored using a microplate reader (Envision, Perkin-Elmer) using excitation and emission wavelengths of 355 nm and 460 nm, respectively. The inhibitor dose response curves were analyzed using normalized IC50 regression curve fitting with control based normalization.
The IC50 values of for Compounds disclosed are listed in Table 2, A: ≤10 nM; B: >10 nM and ≤100 nM; C: >100 nM and ≤1 uM; and D: >1 μM.

The test system of test [2] is MiaPaCa-2 cells. In words: MiaPaCa-2 Cell proliferation assay in 3D culture (CCK8). Conditions: Homo sapiens, MIA PaCa-2, 120 h; 3D spheroid culture, 5 days with compound, CCK8 readout. It is filed as cell-based. Put shortly: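 Cells grown as spheroids (2500/well, ultra-low attachment, 10% FBS) for 24 h, then exposed 5 days to ten 3-fold compound dilutions at 0.1% DMSO. Viability by CCK8/WST-8, 1.5 h at 37 °C, absorbance 450 nm; IC50 from triplicates.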

Structures are written as SMILES.

For `CC1(CN)CCN(c2cnc(Sc3cccc(C(=O)NS(=O)(=O)c4ccccc4)c3Cl)cn2)CC1` [Example 21, 3-((5-(4-(aminomethyl)-4-methylpiperidin-1-yl)pyrazin-2-yl)thio)-2-chloro-N-(phenylsulfonyl)benzamide], the IC50 in test [1] was not above 0.01 µM; in test [2] it was not above 0.5 µM.

With `CC1(N)CCN(c2cnc(Sc3cccc(C(=O)NS(=O)(=O)C4CCCCC4)c3Cl)cn2)CC1` [Example 20, 3-((5-(4-amino-4-methylpiperidin-1-yl)pyrazin-2-yl)thio)-2-chloro-N-(cyclohexylsulfonyl)benzamide], the IC50 in test [1] lay within 0.01 to 0.1 µM; in test [2], 5 to 50 µM.

On to `CC1(N)CCN(c2cnc(Sc3cccc(C(=O)NS(=O)(=O)c4ccccc4)c3Cl)cn2)CC1` [Example 3, 3-((5-(4-amino-4-methylpiperidin-1-yl)pyrazin-2-yl)thio)-2-chloro-N-(phenylsulfonyl)benzamide], for which the IC50 is not above 0.01 µM in test [1] and 0.5 to 5 µM in test [2].

Take `CC1(N)CCN(c2cnc(Sc3cccc(S(=O)(=O)NC(=O)c4ccccc4)c3Cl)cn2)CC1` [Example 33, N-((3-((5-(4-amino-4-methylpiperidin-1-yl)pyrazin-2-yl)thio)-2-chlorophenyl)sulfonyl)benzamide]: the IC50 is 0.01 to 0.1 µM in test [1] and not above 0.5 µM in test [2].

With `CC1(CN)CCN(c2cnc(Sc3cccc(NC(=O)NS(=O)(=O)C4CC4)c3Cl)cn2)CC1` [Example 32, N-((3-((5-(4-(aminomethyl)-4-methylpiperidin-1-yl)pyrazin-2-yl)thio)-2-chlorophenyl)carbamoyl)cyclopropanesulfonamide], the figures for the IC50 in test [1] and in test [2] were not above 0.01 µM and not above 0.5 µM, respectively.

On to `CC1(CN)CCN(c2cnc(Sc3cccc(NC(=O)NS(C)(=O)=O)c3Cl)cn2)CC1` [Example 29, N-((3-((5-(4-(aminomethyl)-4-methylpiperidin-1-yl)pyrazin-2-yl)thio)-2-chlorophenyl)carbamoyl)methanesulfonamide], for which the values for the IC50 in test [1] and in test [2] were not above 0.01 µM and not above 0.5 µM, respectively.

`CC1(N)CCN(c2cnc(Sc3cccc(S(=O)(=O)NC(=O)c4ccccc4)c3Cl)c(N)n2)CC1` [Example 8, N-((3-((3-amino-5-(4-amino-4-methylpiperidin-1-yl)pyrazin-2-yl)thio)-2-chlorophenyl)sulfonyl)benzamide]: the IC50 lay in the range of 0.01 to 0.1 µM in test [1] and 5 to 50 µM in test [2].

With `CC1(CN)CCN(c2cnc(Sc3cccc(C(=O)NS(=O)(=O)c4cccnc4)c3Cl)cn2)CC1` [Example 24, 3-((5-(4-(aminomethyl)-4-methylpiperidin-1-yl)pyrazin-2-yl)thio)-2-chloro-N-(pyridin-3-ylsulfonyl)benzamide], the IC50 in test [1] is not above 0.01 µM; in test [2], 0.5 to 5 µM.

`CC1(N)CCN(c2cnc(Sc3cccc(NC(=O)NS(=O)(=O)c4ccccc4)c3Cl)cn2)CC1` [Example 1, N-((3-((5-(4-amino-4-methylpiperidin-1-yl)pyrazin-2-yl)thio)-2-chlorophenyl)carbamoyl)benzenesulfonamide]: the IC50 in test [1] is 0.01 to 0.1 µM; in test [2] it was not above 0.5 µM.

Take `CC1(CN)CCN(c2cnc(Sc3cccc(C(=O)NS(=O)(=O)c4ccccn4)c3Cl)c(N)n2)CC1` [Example 35, 3-((3-amino-5-(4-(aminomethyl)-4-methylpiperidin-1-yl)pyrazin-2-yl)thio)-2-chloro-N-(pyridin-2-ylsulfonyl)benzamide]: the IC50 in test [1] was not above 0.01 µM; in test [2] it was not above 0.5 µM.

On to `CC1(CN)CCN(c2cnc(Sc3cccc(NC(=O)NS(=O)(=O)C4CCCC4)c3Cl)c(N)n2)CC1` [Example 42, N-((3-((3-amino-5-(4-(aminomethyl)-4-methylpiperidin-1-yl)pyrazin-2-yl)thio)-2-chlorophenyl)carbamoyl)cyclopentanesulfonamide], for which the IC50 in test [1] was not above 0.01 µM; in test [2], not above 0.5 µM.

In the case of `CC1(CN)CCN(c2cnc(Sc3cccc(S(=O)(=O)NC(=O)c4ccccc4)c3Cl)cn2)CC1` [Example 7, N-((3-((5-(4-(aminomethyl)-4-methylpiperidin-1-yl)pyrazin-2-yl)thio)-2-chlorophenyl)sulfonyl)benzamide], the IC50 in test [1] was in the range of 0.01 to 0.1 µM; in test [2], 0.5 to 5 µM.
